≈ marks a conversion by molar mass, not a printed value.
Legend:
[1] = Solubility in organic solvents at 25° C.
[2] = Oxidation test: toluene solutions allowed to stand in air at room temperature, HPLC peak area ratio; format: physicochemical; conditions: for Peak area ratio (%) of starting compound to whole peak area: toluene solution 0.33 mg/mL, in air, HPLC UV 290 nm, time 0 day (initial); for Change in peak area ratio on preservation as a solution (in words): long period of time
Text: The stability in air of the fullerene derivatives of the present invention may be confirmed, for example, by analyzing the change in quality thereof with time by HPLC. More specifically, the stability in air can be determined as follows. That is, a toluene solution of the fullerene derivatives of the present invention which is allowed to stand in air at room temperature, is subjected to HPLC using an octadecyl-bonded silica gel column (hereinafter referred to merely as “ODS” column), an eluent composed of toluene and methanol and a UV wavelength of 290 nm to measure the rate of reduction in area ratio of a peak attributed to the fullerene derivatives to whole peaks as observed. Concretely, it can be evaluated by the stability in air of solution of fullerene derivative according to the present invention to the solution of same fullerene derivative to the present one except for having a hydrogen atom on cyclopentadiene ring of fullerene skeleton, for example, a C60Ph5CH3 solution to a C60Ph5H solution (Ph represents a phenyl group). For example, the rate of reduction in peak area ratio of the fullerene derivatives according to the present invention is usually 1/20 or lower, preferably 1/100 or lower than that of the case where one having a hydrogen atom on cyclopentadiene ring, namely C60Ph5H, is used under the same conditions.
90 mL of a toluene solution of C60Ph5H (0.33 mg/mL) and 90 mL of a toluene solution of C60Ph5Me obtained in Example 10 (0.33 mg/mL) were respectively prepared and allowed to stand in air at room temperature. The prepared solutions were sampled in an amount of 0.5 mL for each every several days, and subjected to HPLC analysis to examine the change in quality thereof with time. The HPLC analysis conditions were ODS; column size: 150 mm×4.6 mmφ; eluent: toluene/methanol=4/6; flow rate: 1.0 mL/min; detector used: UV 290 nm.

[3] = toluene solution in air, time 1 day
[4] = toluene solution in air, time 2 days
[5] = toluene solution in air, time 6 days
[6] = toluene solution in air, time 8 days
[7] = toluene solution in air, time 9 days
[8] = toluene solution in air, time 14 days
[9] = toluene solution in air, time 15 days
[10] = toluene solution in air, time 16 days
[11] = toluene solution in air, time 20 days
[12] = toluene solution in air, time 22 days
[13] = toluene solution in air, time 23 days
[14] = toluene solution in air, time 63 days

Structure (SMILES) | Peak area ratio (%) of starting compound to whole peak area [2] | Change in peak area ratio on preservation as a solution (in words) ([2]; toluene solution in air) | Peak area ratio (%) [2, 3] | Peak area ratio (%) [2, 4] | Peak area ratio (%) [2, 5] | Peak area ratio (%) [2, 6] | Peak area ratio (%) [2, 7] | Peak area ratio (%) [2, 8] | Peak area ratio (%) [2, 9] | Peak area ratio (%) [2, 10] | Peak area ratio (%) [2, 11] | Peak area ratio (%) [2, 12] | Peak area ratio (%) [2, 13] | Peak area ratio (%) [2, 14] | other results
CCOC(=O)CCCC12C3=C4C5=C1C1(C)c6c7c8c9c(c%10c%11c%12c(c%13c%14c%15c(c%16c%17c%18c(c1c1c6c6c8c8c%19c9c%11c9c%11c%12c%14c%12c%14c%15c%17c%15c%17c%18c1c1c6c8c6c(c9%19)c(c%11%12)c(c%14%15)c6c1%17)C%162C)C3%13C)C4%10C)C57C (stereo not shown) [C60Me5—(CH2)3CO2Et, 1-(3-(ethoxycarbonyl)propyl)-6,9,12,15,18-pentamethyl-1,6,9,12,15,18-hexahydro-(C60-Ih)[5,6]fullerene] | – | – | – | – | – | – | – | – | – | – | – | – | – | – | Solubility in chloroform (CHCl3) ([1]; CHCl3, 25° C.): 35.9 mg/mL (≈ 39.4 mM); Solubility in N,N-dimethylformamide (DMF) ([1]; DMF, 25° C.): 15.4 mg/mL (≈ 16.9 mM); Solubility in ethyl acetate (EtOAc) ([1]; EtOAc, 25° C.): 3.9 mg/mL (≈ 4.28 mM); Solubility in tetrahydrofuran (THF) ([1]; THF, 25° C.): 103.0 mg/mL (≈ 113 mM)
c1ccc(C23C4=C5C6C7=C4C4(c8ccccc8)c8c2c2c9c3c3c%10c%11c(c%12c%13c%14c(c%15c%16c%17c(c4c4c8c8c2c2c%18c9c%10c9c%10c%11c%13c%11c%13c%14c%16c%14c%16c%17c4c4c8c2c2c(c%189)c(c%10%11)c(c%14%13)c2c4%16)C7%15c2ccccc2)C%126c2ccccc2)C53c2ccccc2)cc1 (stereo not shown) [Example C60Ph5H] | 98.5% | considerable reduction in peak area ratio | 97.5% | 96.7% | 94.4% | 93.2% | 92.9% | 90.6% | 90.1% | 89.6% | 88.6% | 87.4% | 87.4% | 70.1% | Rate of reduction of the peak area ratio ([2]; toluene solution in air): about 0.45 % per day; Peak area ratio (%) ([2]; toluene solution in air, time 5 days): 95.0%; Peak area ratio (%) ([2]; toluene solution in air, time 12 days): 92.0%; Peak area ratio (%) ([2]; toluene solution in air, time 13 days): 91.7%; Peak area ratio (%) ([2]; toluene solution in air, time 26 days): 85.9%; Peak area ratio (%) ([2]; toluene solution in air, time 30 days): 84.3%; Peak area ratio (%) ([2]; toluene solution in air, time 33 days): 81.5%; Peak area ratio (%) ([2]; toluene solution in air, time 37 days): 80.4%; Peak area ratio (%) ([2]; toluene solution in air, time 43 days): 78.9%; Peak area ratio (%) ([2]; toluene solution in air, time 51 days): 74.1%; Peak area ratio (%) ([2]; toluene solution in air, time 58 days): 71.4%; Peak area ratio (%) ([2]; toluene solution in air, time 65 days): 70.1%
CC12C3=C4C5=C1C1(c6ccccc6)c6c7c8c9c(c%10c%11c%12c(c%13c%14c%15c(c%16c%17c%18c(c1c1c6c6c8c8c%19c9c%11c9c%11c%12c%14c%12c%14c%15c%17c%15c%17c%18c1c1c6c8c6c(c9%19)c(c%11%12)c(c%14%15)c6c1%17)C%162c1ccccc1)C3%13c1ccccc1)C4%10c1ccccc1)C57c1ccccc1 (stereo not shown) [Example C60Ph5Me, 1-methyl-6,9,12,15,18-pentaphenyl-1,6,9,12,15,18-hexahydro-(C60-Ih)[5,6]fullerene] | 98.8% | kept substantially unchanged | 98.4% | 98.9% | 98.4% | 98.7% | 98.5% | 98.3% | 98.9% | 98.4% | 98.4% | 97.1% | 97.4% | 98.3% | Peak area ratio (%) ([2]; toluene solution in air, time 3 days): 98.8%; Peak area ratio (%) ([2]; toluene solution in air, time 7 days): 98.3%; Peak area ratio (%) ([2]; toluene solution in air, time 10 days): 98.0%; Peak area ratio (%) ([2]; toluene solution in air, time 21 days): 98.4%; Peak area ratio (%) ([2]; toluene solution in air, time 25 days): 98.5%; Peak area ratio (%) ([2]; toluene solution in air, time 31 days): 97.9%; Peak area ratio (%) ([2]; toluene solution in air, time 38 days): 98.2%; Peak area ratio (%) ([2]; toluene solution in air, time 48 days): 98.1%
